Where two headings read alike, the source gives them in different places.
Key:
[1] = Pharmacokinetic study, oral single and 14-day dosing; assay type: in vivo, cynomolgus monkey
Protocol: Monkeys were orally treated with SARM‐2f (10 mg/kg) as a single dose or daily administration for 14 consecutive days; blood was collected from the femoral vein at 0.5, 1, 2, 4, 8, and 24 hours after the single dose and 14 doses (n = 2 each sex). The blood samples were centrifuged (4°C, 12 000 g, 1 minutes) to obtain plasma. Plasma concentrations of SARM‐2f were measured by liquid chromatography/tandem mass spectrometry.

[2] = Liver function tests (AST, ALT) after 4-week treatment; assay type: in vivo, cynomolgus monkey; details: after 4 wks; SARM‐2f 1, 3, 10 mg/kg daily p.o.; TE 2 mg/kg every 2 wks; vs vehicle
Protocol: (§1) The monkeys were divided into five groups by weight randomization (MiTOX system ver2.0, Mitsui E & S Systems Research Inc) on the last day of the habituation period. SARM‐2f was orally administered at daily doses of 1, 3, or 10 mg/kg for 4 weeks between 9:00 and 11:00 hours, using 0.5% w/v methylcellulose as the vehicle. TE was injected intramuscularly on Day 0 and Day 13; the dosing start was set at Day 0 at a dose of 2 mg/kg using sesame oil as the vehicle. The route of administration and dose of TE was selected according to the route and dose mentioned in the clinical indications. BW was measured every week before dosing (between 8:30 and 9:00 hours), and LBM was measured every 2 weeks after dosing and before feeding (between 11:30 and 14:30 hours) using an X‐ray bone density measuring device (Discovery, HOLOGIC USA). Blood collection for lipid profiles was conducted on the day after the completion of the four‐week multiple administration of SARM‐2f or TE. Plasma levels of total cholesterol (T‐chol), HDL‐c, low‐density lipoprotein cholesterol (LDL‐c), triglyceride (TG), alanine aminotransferase (ALT), and […] (AST) were measured by an automatic JCA‐BM8 analysis system (JEOL Ltd.). Plasma lipoprotein (a) (Lp (a)) levels were measured using a multiplate absorbance measuring system (Multiscan Ascent, Thermo Fisher Scientific KK).
(§2) In the reporter assays, EC50 was calculated using Graph Pad Prism version 6. The effects of SARM‐2f or TE on BW and LBM were analyzed by t test, with Bonferroni correction for repeated measurements.

[3] = Effects on body weight and lean body mass, 4-week administration; assay type: in vivo, cynomolgus monkey
Protocol: as §1, §2

rat AR = target: T1, rat AR (Rattus norvegicus, UniProt P15207); assay: AR reporter assay (MMTV-luc) in COS7 cells expressing rat AR; assay type: cell-based
T1 construct: expressed in transfected cells; host or cells: COS7
T1 sequence (P15207 1-902): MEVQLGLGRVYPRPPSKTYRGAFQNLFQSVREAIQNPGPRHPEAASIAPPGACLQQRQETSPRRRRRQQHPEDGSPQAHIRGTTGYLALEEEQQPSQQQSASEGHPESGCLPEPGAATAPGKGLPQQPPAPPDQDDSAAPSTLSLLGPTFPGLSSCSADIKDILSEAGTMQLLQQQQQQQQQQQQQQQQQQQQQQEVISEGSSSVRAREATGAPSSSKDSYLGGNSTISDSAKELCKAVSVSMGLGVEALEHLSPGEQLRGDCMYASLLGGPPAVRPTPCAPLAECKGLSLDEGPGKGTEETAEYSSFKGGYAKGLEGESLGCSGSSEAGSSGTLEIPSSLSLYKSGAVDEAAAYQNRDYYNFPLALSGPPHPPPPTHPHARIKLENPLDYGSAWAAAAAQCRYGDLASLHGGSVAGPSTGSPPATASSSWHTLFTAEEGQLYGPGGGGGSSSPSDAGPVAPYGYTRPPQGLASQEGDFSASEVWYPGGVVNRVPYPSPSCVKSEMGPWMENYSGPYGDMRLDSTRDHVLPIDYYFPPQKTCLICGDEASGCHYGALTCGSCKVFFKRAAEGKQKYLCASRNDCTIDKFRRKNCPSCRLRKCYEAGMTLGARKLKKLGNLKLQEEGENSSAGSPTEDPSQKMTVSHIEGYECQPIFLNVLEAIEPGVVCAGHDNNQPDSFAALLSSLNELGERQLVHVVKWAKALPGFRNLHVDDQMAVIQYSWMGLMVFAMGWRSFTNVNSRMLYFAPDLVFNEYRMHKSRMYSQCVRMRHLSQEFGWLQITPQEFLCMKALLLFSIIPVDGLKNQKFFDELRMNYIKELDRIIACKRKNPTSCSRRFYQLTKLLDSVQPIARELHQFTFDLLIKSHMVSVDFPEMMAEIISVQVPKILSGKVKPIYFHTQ
Protocol: Two hours post‐transfection, the cells were plated in 96‐well plates at a density of 2 × 10^4 cells/well, and cultured at 37°C for 3 hours. […] Luciferase activity was measured using the Steady‐Glo Luciferase assay system (Promega) and an Envision Multimode Plate Reader (PerkinElmer).
as §2

[4] = set-up: method as in PMID 28454849; details: rats, cited from earlier work
[5] = set-up: method as in PMID 28454849; details: monkeys, cited from earlier work
[6] = 10 mg/kg p.o., 1st (single) dose, total N = 4
[7] = 10 mg/kg p.o., 1st dose, female N = 2
[8] = 10 mg/kg p.o., 1st dose, male N = 2
[9] = 10 mg/kg/day p.o., 14th dose, female N = 2
[10] = 10 mg/kg/day p.o., 14th dose, male N = 2
[11] = 10 mg/kg/day p.o., 14th dose, total N = 4
[12] = intravenous administration at 0.1 mg/kg
[13] = single oral administration at 1 mg/kg

## CC[C@H]1[C@@H](O)CC(=O)N1c1ccc(C#N)c(C(F)(F)F)c1 [SARM‐2f, 4′‐[(2S,3S)‐2‐Ethyl‐3‐hydroxy‐5‐oxopyrrolidin‐1‐yl]‐2′‐(trifluoromethyl) benzonitrile]
[1]; [6]
  AUC 0‐24 h: 8152 ± 945 ng·h/mL
  C max: 3011 ± 718 ng/mL
  T max: 1.0 ± 0.0 h
[1]; [7]
  AUC 0‐24 h: 8116 ng·h/mL
  C max: 3341 ng/mL
  T max: 1.0 h
[1]; [8]
  AUC 0‐24 h: 8188 ng·h/mL
  C max: 2681 ng/mL
  T max: 1.0 h
[1]; [9]
  AUC 0‐24 h: 6043 ng·h/mL
  C max: 2297 ng/mL
  T max: 1 h
[1]; [10]
  AUC 0‐24 h: 8620 ng·h/mL
  C max: 3176 ng/mL
  T max: 0.8 h
[1]; [11]
  AUC 0‐24 h: 7331 ± 1618 ng·h/mL
  C max: 2736 ± 525 ng/mL
  T max: 0.9 ± 0.3 h
[2]
  Blood level of ALT: not changed
  Blood level of AST: not changed
[3]; 1 mg/kg daily p.o., Day 13, male monkeys n = 3
  BW increase from pre‐dosing level: 6.2%
[3]; 1 mg/kg daily p.o., Day 13, n = 3
  LBM increase from pre‐dosing level: 4.3%
[3]; 1 mg/kg daily p.o., Day 27, male monkeys n = 3
  BW increase from pre‐dosing level: 7.7%
[3]; 1 mg/kg daily p.o., Day 28, n = 3
  LBM increase from pre‐dosing level: 6.1%
[3]; 3 mg/kg daily p.o., Day 13, male monkeys n = 3
  BW increase from pre‐dosing level: 6.0%
[3]; 3 mg/kg daily p.o., Day 13, n = 3
  LBM increase from pre‐dosing level: 4.0%
[3]; 3 mg/kg daily p.o., Day 27, male monkeys n = 3
  BW increase from pre‐dosing level: 3.3%
[3]; 3 mg/kg daily p.o., Day 28, n = 3
  LBM increase from pre‐dosing level: 3.1%
[3]; monkeys, daily p.o., 4 weeks
  effective dose to increase BW by approximately 10%: 10 mg/kg
Rat AR; rat AR reporter assay (abstract), read-out: EC50
  EC50: 2.5 nM
Rat AR; rat AR, at 1 μmol/L, 1 μmol/L DHT = 100%
  maximal activation: 118%
[4]; [12]
  Vdss: 2167 mL/kg
[4]; [13]
  AUC 0‐24 h: 809.4 ng·h/mL
[4]
  MRT (Mean Residence Time): 3.06 h
[5]; [12]
  Vdss: 1409 mL/kg
[5]; [13]
  AUC 0‐24 h: 557.8 ng·h/mL
[5]
  MRT (Mean Residence Time): 5.21 h
